The record followed here is patent publication US20240207269A1, “USES OF HETEROCYCLIC INHIBITORS OF ERK1/2” (Erasca, Inc., priority 2021, published 2024).

This data set can be described thus: First-in-Human (FIH) Phase 1 study comparing QW and QD regimens. It counts as in vivo. Particulars: QW preferred to QD. The procedure:
Both QW and QD regimens were evaluated in the First-in-Human (FIH) Phase 1 study. […] The observed data in indicate that having an uninterrupted coverage over IC90 for 1-2 days can improve cancer cell killing and maintaining Ctrough below IC50 can help normal cell recovery and can improve tolerability.

In the case of `Cc1cnc(NC2CCOCC2)nc1-n1cnc(C(=O)N[C@H](CN)c2cc(F)cc(Cl)c2)c1` [Compound 1, (S)—N-(2-amino-1-(3-chloro-5-fluorophenyl)ethyl)-1-(5-methyl-2-((tetrahydro-2H-pyran-4-yl)amino)pyrimidin-4-yl)-1H-imidazole-4-carboxamide], the “Efficacy, QW regimen compared to QD regimen” value is recorded as “better efficacy” and the “Skin toxicities, QW regimen compared to QD regimen” value was “less frequent skin toxicities”.
